Test results reported in BindingDB's records for doi:10.7270/Q2FX7CM7 (n/a, 1993).

Molecular target: DNA gyrase A/A/B/B tetramer (Escherichia coli (strain K12), UniProt P0AES4+P0AES6)
Test: In vitro antibacterial activity was determined as inhibitory concentration causing 50% DNA-gyrase supercoiling inhibition (SCI)

Structure (SMILES): C[C@H]1COc2c(N3CCN(C)CC3)c(F)cc3c(=O)c(C(=O)O)cn1c23 [9-fluoro-3-methyl-10-(4-methylpiperazin-1-yl)-7-oxo-2,3-dihydro-7H-[1,4]oxazino[2,3,4-ij]quinoline-6-carboxylic acid]
- IC50: 4.98 µM
